Results published in ChEMBL document CHEMBL1909526, “Berkeleyones and related meroterpenes from a deep water acid mine waste fungus that inhibit the production of interleukin 1-β from induced inflammasomes” (J Nat Prod, 2011).

Each compound was assayed against T1, Caspase-1 (Homo sapiens) (UniProt P29466) (assay: Inhibition of caspase1 in differentiated human THP-1 cells at 100 ug/ml after 24 hrs by fluorometric assay).
T1 sequence (whole entry): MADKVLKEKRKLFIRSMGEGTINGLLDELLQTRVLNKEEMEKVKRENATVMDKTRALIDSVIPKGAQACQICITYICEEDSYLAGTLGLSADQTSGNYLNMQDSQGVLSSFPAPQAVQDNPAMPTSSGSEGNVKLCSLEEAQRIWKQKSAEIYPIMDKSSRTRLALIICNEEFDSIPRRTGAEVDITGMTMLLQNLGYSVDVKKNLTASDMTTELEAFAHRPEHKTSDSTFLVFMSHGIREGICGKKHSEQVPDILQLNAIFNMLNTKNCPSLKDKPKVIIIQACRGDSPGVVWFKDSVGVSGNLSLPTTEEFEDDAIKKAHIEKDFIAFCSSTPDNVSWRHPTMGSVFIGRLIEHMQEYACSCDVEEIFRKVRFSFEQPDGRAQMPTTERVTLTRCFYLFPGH
Format: cell-based

Row | SMILES | inhibition
1 | C=C(C)C1=CC[C@@]2(C)[C@@H](C[C@]3(C)C(=C)[C@@]2(C(=O)OC)C(=O)[C@@](C)(O)C3=O)[C@]1(C)CCC(=O)O | 0%
2 | C=C1[C@@]2(C)C[C@H]3C(C)=C4CC(=O)OC(C)(C)C4=CC[C@]3(C)[C@]1(C(=O)OC)C(=O)[C@@](C)(O)C2=O | 89%
3 | C=C1[C@@]2(C)C[C@@H]3[C@](C)(CC=C4C(C)(C)OC(=O)CC[C@]43C)[C@]1(C(=O)OC)C(=O)[C@@](C)(O)C2=O | 100%
4 | C=C1[C@@]2(C)C[C@H]3[C@]4(C)CC[C@@H](O)C(C)(C)[C@H]4CC[C@]3(C)[C@]1(C(=O)OC)C(=O)[C@@](C)(O)C2=O | 68%
5 | C=C1[C@@]2(C)C[C@H]3[C@]4(C)CCC(=O)C(C)(C)[C@H]4CC[C@]3(C)[C@]1(C(=O)OC)C(=O)[C@@](C)(O)C2=O | 97%
6 | C=C1[C@@]2(C)C[C@H]3[C@]4(C)CCC(=O)OC(C)(C)[C@@H]4CC[C@]3(C)[C@]1(C(=O)OC)C(=O)[C@@](C)(O)C2=O | 77%

The compounds below were run against T1, Caspase-1 (Homo sapiens) (assay: Inhibition of caspase1 in differentiated human THP-1 cells at 0.0005 ug/ml after 24 hrs by fluorometric assay).
Format: cell-based

Row | SMILES | inhibition
7 | CC(=O)N[C@@H](Cc1ccc(O)cc1)C(=O)N[C@H](C(=O)N[C@@H](C)C(=O)N[C@H](C=O)CC(=O)O)C(C)C | 100%
